Reference: the NIST ThermoML archive (doi:10.1021/je200811n)

Settings: Hot wire method

C=C(F)C(F)(F)F [2,3,3,3-tetrafluoro-1-propene]
Settings	thermal conductivity [W/m/K]
322.22 K, 6361 kPa, Liquid	0.06113
322.24 K, 721 kPa, Gas	0.01595
322.25 K, 302 kPa, Gas	0.01579
322.25 K, 21278 kPa, Liquid	0.07192
322.26 K, 11135 kPa, Liquid	0.06468
322.26 K, 16399 kPa, Liquid	0.06856
322.28 K, 617 kPa, Gas	0.01584
322.29 K, 200 kPa, Gas	0.01556
322.33 K, 103 kPa, Gas	0.01529
322.35 K, 1115 kPa, Gas	0.01644
322.36 K, 21276 kPa, Liquid	0.07119
322.37 K, 1451 kPa, Liquid	0.05654
322.37 K, 6358 kPa, Liquid	0.06119
322.38 K, 454 kPa, Gas	0.01579
322.39 K, 1199 kPa, Gas	0.01671
322.39 K, 11134 kPa, Liquid	0.06479
322.45 K, 958 kPa, Gas	0.01621
322.5 K, 861 kPa, Gas	0.01614
322.51 K, 302 kPa, Gas	0.01582
322.56 K, 720 kPa, Gas	0.01597
322.6 K, 16396 kPa, Liquid	0.06784
322.62 K, 617 kPa, Gas	0.01591
322.63 K, 6353 kPa, Liquid	0.06144
322.64 K, 201 kPa, Gas	0.01586
322.65 K, 1450 kPa, Liquid	0.05654
322.66 K, 11130 kPa, Liquid	0.06486
322.67 K, 1114 kPa, Gas	0.01646
322.69 K, 1199 kPa, Gas	0.01673
322.71 K, 21274 kPa, Liquid	0.0708
322.73 K, 453 kPa, Gas	0.01585
322.76 K, 958 kPa, Gas	0.01622
322.76 K, 16394 kPa, Liquid	0.06823
322.8 K, 6353 kPa, Liquid	0.06127
322.81 K, 103 kPa, Gas	0.01605
322.81 K, 11128 kPa, Liquid	0.06487
322.82 K, 860 kPa, Gas	0.01612
322.84 K, 1450 kPa, Liquid	0.05629
322.84 K, 21270 kPa, Liquid	0.07095
322.88 K, 302 kPa, Gas	0.01585
322.91 K, 720 kPa, Gas	0.01599
322.98 K, 616 kPa, Gas	0.01592
323 K, 200 kPa, Gas	0.01592
323 K, 1199 kPa, Gas	0.01678
323.01 K, 1114 kPa, Gas	0.01647
323.08 K, 11126 kPa, Liquid	0.06485
323.09 K, 6351 kPa, Liquid	0.06135
323.1 K, 453 kPa, Gas	0.0159
323.11 K, 957 kPa, Gas	0.01622
323.13 K, 1448 kPa, Liquid	0.05646
323.15 K, 16396 kPa, Liquid	0.06821
323.18 K, 859 kPa, Gas	0.01617
323.22 K, 103 kPa, Gas	0.01607
323.23 K, 21266 kPa, Liquid	0.07101
323.26 K, 11126 kPa, Liquid	0.06472
323.27 K, 719 kPa, Gas	0.016
323.28 K, 302 kPa, Gas	0.0159
323.28 K, 6351 kPa, Liquid	0.06102
323.33 K, 1199 kPa, Gas	0.01671
323.34 K, 614 kPa, Gas	0.01597
323.34 K, 1447 kPa, Liquid	0.05607
323.34 K, 16393 kPa, Liquid	0.06817
323.4 K, 200 kPa, Gas	0.01592
323.4 K, 21264 kPa, Liquid	0.07095
323.46 K, 956 kPa, Gas	0.01625
323.49 K, 453 kPa, Gas	0.01593
323.55 K, 858 kPa, Gas	0.01618
323.65 K, 103 kPa, Gas	0.01611
323.66 K, 718 kPa, Gas	0.01605
323.69 K, 302 kPa, Gas	0.01592
323.73 K, 612 kPa, Gas	0.01601
323.75 K, 16392 kPa, Liquid	0.06817
323.8 K, 21262 kPa, Liquid	0.07093
323.83 K, 200 kPa, Gas	0.01593
323.91 K, 453 kPa, Gas	0.01589
323.97 K, 16390 kPa, Liquid	0.068
324 K, 21259 kPa, Liquid	0.07084
324.11 K, 302 kPa, Gas	0.01598
324.12 K, 103 kPa, Gas	0.01612
324.29 K, 200 kPa, Gas	0.01599
324.62 K, 103 kPa, Gas	0.01618
331.07 K, 101 kPa, Gas	0.01664
331.09 K, 202 kPa, Gas	0.01678
331.12 K, 299 kPa, Gas	0.01699
331.29 K, 101 kPa, Gas	0.0165
331.3 K, 202 kPa, Gas	0.0167
331.34 K, 299 kPa, Gas	0.01685
331.53 K, 101 kPa, Gas	0.01639
331.54 K, 202 kPa, Gas	0.01658
331.56 K, 300 kPa, Gas	0.01677
331.78 K, 102 kPa, Gas	0.01632
331.78 K, 202 kPa, Gas	0.0165
331.8 K, 300 kPa, Gas	0.0167
331.8 K, 1511 kPa, Gas	0.01797
331.86 K, 1389 kPa, Gas	0.0177
331.9 K, 1236 kPa, Gas	0.01732
331.98 K, 1075 kPa, Gas	0.01717
332 K, 975 kPa, Gas	0.01697
332.04 K, 102 kPa, Gas	0.01627
332.04 K, 202 kPa, Gas	0.01642

Settings	thermal conductivity [W/m/K]
323.15 K, Liquid	0.05606
